Results: patent publication US20250084092A1, “ANNULATED PYRIDAZINE COMPOUND” (Nico Therapeutics, Inc., priority 2021, published 2025)
Counter-ions that a name gives are not always drawn.

Biological target: T1, NLRP3 inflammasome (Homo sapiens, UniProt Q96P20)
T1 construct: endogenous in cells; host or cells: THP-1 cells (PMA-differentiated, stimulated with LPS and ATP)
Assay: THP-1 IL-1β production inhibition test
Format: cell-based
Conditions: PMA-treated THP-1 cells, LPS 50 ng/mL + ATP 5 mM, 2 hours, IL-1β in supernatant by ELISA
Method: PMA (phorbol myristate acetate, SIGMA, P1585) was added to THP-1 cells in an amount of 50 ng/mL to culture the cells for 2 days at 37° C. […] LPS (Lipopolysaccharide, SIMGA, L2880) and ATP (Adenosine triphosphate, SIGMA, A2383) were added so that final concentrations become 50 ng/mL and 5 mM, respectively, followed by culturing at 37° C. for 2 hours. The supernatants were collected to measure the concentrations of IL-1β by ELISA (DuoSet ELISA human IL-1β, R&D Systems, DY201). The IL-1β concentrations were plotted against log concentrations of test compounds, and an IC50 value was calculated by sigmoid Emax model nonlinear regression analysis.

T1 sequence (Q96P20 whole entry): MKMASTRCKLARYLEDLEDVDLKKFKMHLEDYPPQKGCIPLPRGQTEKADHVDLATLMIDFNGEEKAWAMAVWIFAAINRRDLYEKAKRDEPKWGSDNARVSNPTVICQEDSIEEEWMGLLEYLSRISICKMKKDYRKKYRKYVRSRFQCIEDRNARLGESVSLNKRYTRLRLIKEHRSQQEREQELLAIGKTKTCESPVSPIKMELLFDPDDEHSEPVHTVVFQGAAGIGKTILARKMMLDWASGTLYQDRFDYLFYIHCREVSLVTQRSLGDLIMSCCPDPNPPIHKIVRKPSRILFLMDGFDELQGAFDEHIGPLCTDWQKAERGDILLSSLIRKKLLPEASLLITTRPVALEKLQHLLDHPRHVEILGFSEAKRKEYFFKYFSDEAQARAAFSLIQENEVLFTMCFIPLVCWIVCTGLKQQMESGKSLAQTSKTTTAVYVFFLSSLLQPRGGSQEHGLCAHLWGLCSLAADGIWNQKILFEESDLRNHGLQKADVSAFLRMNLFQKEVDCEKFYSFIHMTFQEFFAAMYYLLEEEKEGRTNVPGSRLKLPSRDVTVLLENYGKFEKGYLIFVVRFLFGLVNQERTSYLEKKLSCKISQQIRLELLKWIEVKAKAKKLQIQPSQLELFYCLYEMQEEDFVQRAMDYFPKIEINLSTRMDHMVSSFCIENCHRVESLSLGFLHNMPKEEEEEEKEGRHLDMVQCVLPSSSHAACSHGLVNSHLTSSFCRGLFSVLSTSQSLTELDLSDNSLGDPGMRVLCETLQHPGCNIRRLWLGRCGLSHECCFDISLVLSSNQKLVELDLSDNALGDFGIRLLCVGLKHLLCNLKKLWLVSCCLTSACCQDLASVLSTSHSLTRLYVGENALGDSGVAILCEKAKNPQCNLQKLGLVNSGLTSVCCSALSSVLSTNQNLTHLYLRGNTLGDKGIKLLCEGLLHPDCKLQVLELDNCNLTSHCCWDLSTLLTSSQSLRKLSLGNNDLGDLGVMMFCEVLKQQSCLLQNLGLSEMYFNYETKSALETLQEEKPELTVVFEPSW

| IC50 [nM] | SMILES |
| --- | --- |
| 4.6 | Oc1cc(C(F)(F)F)ccc1-c1nnc(N[C@@H]2CCCC[C@H]2O)c2c1CCCC2 [Example 134, 2-(4-{[(1R,2R)-2-hydroxycyclohexyl]amino}-5,6,7,8-tetrahydrophthalazin-1-yl)-5-(trifluoromethyl)phenol monohydrochloride] |
| 4.4 | Oc1cc(OC(F)F)ccc1-c1nnc(N[C@@H]2CCCC[C@H]2O)c2c1CCCOC2 [Example 116] |
| 4.8 | CC(=O)NCCCCNc1nnc(-c2ccc(C(F)(F)F)cc2O)c2c1COCC2 [Example 118] |
| 8.9 | CN1CCC[C@@H](Nc2nnc(-c3ccc(C(F)(F)F)cc3O)c3c2CCOCC3)C1 [Example 105] |
| 5.6 | Oc1cc(OC(F)(F)F)ccc1-c1nnc(N[C@@H]2CCCC[C@@H]2O)c2c1CCOC2 [Example 127, 2-(4-{[(1R,2S)-2-hydroxycyclohexyl]amino}-7,8-dihydro-5H-pyrano[3,4-d]pyridazin-1-yl)-5-(trifluoromethoxy)phenol] |
| 58 | Oc1cc(C(F)(F)F)c(F)cc1-c1nnc(N[C@@H]2CCCC[C@H]2O)c2c1CCCC2 [Example 85] |
| 5.1 | Oc1cc(C(F)(F)F)ccc1-c1nnc(N[C@@H]2CCCC[C@H]2O)c2sccc12 [Example 94, 2-(7-{[(1R,2R)-2-hydroxycyclohexyl]amino}thieno[2,3-d]pyridazin-4-yl)-5-(trifluoromethyl)phenol] |
| 11 | Oc1cc(C(F)(F)F)c(F)cc1-c1nnc(N[C@@H]2CCCC[C@H]2O)c2c1CCOC2 [Example 86] |
| 22 | O=S1(=O)CCc2c(N[C@@H]3CCCC[C@H]3O)nnc(-c3ccc(C(F)(F)F)cc3O)c2C1 [Example 130] |
| 11 | Oc1cc(OC(F)(F)F)ccc1-c1nnc(N[C@@H]2CCCC[C@H]2O)c2c1CCOCC2 [Example 68] |
| 1.3 | Oc1cc(C(F)(F)F)ccc1-c1nnc(N[C@@H]2CCCC[C@H]2O)c2c1CCOC2 [Example 133, 2-(4-{[(1R,2R)-2-hydroxycyclohexyl]amino}-7,8-dihydro-5H-pyrano[3,4-d]pyridazin-1-yl)-5-(trifluoromethyl)phenol monohydrochloride] |
| 200 | CS(=O)(=O)N1CCc2c(-c3ccc(C(F)(F)F)cc3O)nnc(N[C@@H]3CCCC[C@H]3O)c2C1 [Example 93, 2-[4-{[(1R,2R)-2-hydroxycyclohexyl]amino}-6-(methanesulfonyl)-5,6,7,8-tetrahydropyrido[3,4-d]pyridazin-1-yl]-5-(trifluoromethyl)phenol] |
| 48 | CC(=O)N1CCC[C@@H](Oc2nnc(-c3ccc(C(F)(F)F)cc3O)c3ccccc23)C1 [Example 65] |
| 5200 | C[C@@H](O)CNc1nnc(-c2ccc(C(F)(F)F)cc2C(F)(F)F)c2c1CN(S(C)(=O)=O)CC2 [Example 80, (2R)-1-({1-[2,4-bis(trifluoromethyl)phenyl]-6-(methanesulfonyl)-5,6,7,8-tetrahydropyrido[3,4-d]pyridazin-4-yl}amino)propan-2-ol] |
| 2.2 | CN1CCC[C@@H](Nc2nnc(-c3ccc(OC(F)F)cc3O)c3c2COCC3)C1 [Example 136, 5-(difluoromethoxy)-2-(4-{[(3R)-1-methylpiperidin-3-yl]amino}-7,8-dihydro-5H-pyrano[3,4-d]pyridazin-1-yl)phenol dihydrochloride] |
| 1.3 | CN1CCC[C@@H](Nc2nnc(-c3ccc(C4CC4)cc3O)c3c2COCC3)C1 [Example 112, 5-cyclopropyl-2-(4-{[(3R)-1-methylpiperidin-3-yl]amino}-7,8-dihydro-5H-pyrano[3,4-d]pyridazin-1-yl)phenol] |
| 1.4 | COc1ccc(-c2nnc(N[C@@H]3CCCN(C)C3)c3c2CCOC3)c(O)c1 [Example 110] |
| 1.5 | CN1CCC[C@@H](Nc2nnc(-c3ccc(Cl)cc3O)c3c2COCC3)C1 [Example 109] |
| 28 | N[C@@H]1CCCC[C@H]1Nc1nnc(-c2ccc(C(F)(F)F)cc2O)c2ccccc12 [Example 82, 2-(4-{[(1R,2R)-2-aminocyclohexyl]amino}phthalazin-1-yl)-5-(trifluoromethyl)phenol dihydrochloride] |
| 33 | Cc1ccc(-c2nnc(N[C@@H]3CCCC[C@H]3O)c3c2CCN(C)C3)c(O)c1 [Example 77] |
| 6 | CC(=O)N1CCC[C@@H](Nc2nnc(-c3ccc(C(F)(F)F)cc3O)c3c2CSC3)C1 [Example 119] |
| 6.5 | Oc1cc(C(F)F)ccc1-c1nnc(N[C@@H]2CCCC[C@H]2O)c2c1CCOC2 [Example 87] |
| 8.5 | CN1CCC[C@@H](Nc2nnc(-c3ccc(C(F)(F)F)cc3O)c3c2CSC3)C1 [Example 121] |
| 1 | CN1CCC[C@@H](Nc2nnc(-c3ccc(OC(F)F)cc3O)c3c2CCOC3)C1 [Example 120] |
| 4.4 | Oc1cc(C(F)(F)F)ccc1-c1nnc(N[C@@H]2CCCC[C@H]2O)c2c1CCSC2 [Example 103] |
| 3.4 | Oc1cc(C(F)(F)F)ccc1-c1nnc(N[C@@H]2CCCN(C3COC3)C2)c2c1CCCC2 [Example 97, 2-(4-{[(3R)-1-(oxetan-3-yl)piperidin-3-yl]amino}-5,6,7,8-tetrahydrophthalazin-1-yl)-5-(trifluoromethyl)phenol] |
| 18 | Oc1cc(C(F)F)ccc1-c1nnc(N[C@@H]2CCCC[C@H]2O)c2c1CCCC2 [Example 84] |
| 23 | CN1CCc2c(-c3ccc(OC(F)(F)F)cc3O)nnc(N[C@@H]3CCCC[C@H]3O)c2C1 [Example 76] |
| 54 | CN1CCc2c(N[C@@H]3CCCC[C@H]3O)nnc(-c3ccc(C(F)(F)F)cc3O)c2C1 [Example 75] |
| 54 | CCN1CCc2c(-c3ccc(C(F)(F)F)cc3O)nnc(N[C@@H]3CCCC[C@H]3O)c2C1 [Example 78] |

The remaining lines, values behind:

| SMILES | IC50 [nM] |
| --- | --- |
| Oc1cc(C(F)(F)F)ccc1-c1nnc(N[C@@H]2CCCC[C@H]2O)c2c1COCC2 [2(2), 2-(1-{[(1R,2R)-2-hydroxycyclohexyl]amino}-7,8-dihydro-5H-pyrano[3,4-d]pyridazin-4-yl)-5-(trifluoromethyl)phenol] | 14 |
| CC(=O)N1CCC[C@@H](Nc2nnc(-c3ccc(C(F)(F)F)cc3O)c3ccccc23)C1 [Example 63] | 9.4 |
| O=S1(=O)Cc2c(N[C@@H]3CCCC[C@H]3O)nnc(-c3ccc(C(F)(F)F)cc3O)c2C1 [131(1)] | 3 |
| C[C@@H](O)CCc1nnc(-c2ccc(C(F)(F)F)cc2O)c2c1CCC2 [Example 22] | 69 |
| Cc1ccc(-c2nnc(N[C@@H]3CCCC[C@@]3(C)O)c3c2CCCC3)c(O)c1 [Example 55] | 36 |
| OCC12CC(Nc3nnc(-c4ccc(C(F)(F)F)cc4O)c4c3CCCC4)(C1)C2 [Example 40] | 50 |
| C[C@]1(O)C[C@@H](Nc2nnc(-c3ccc(C(F)(F)F)cc3O)c3c2CCOC3)C1 [56(2)] | 36 |
| COc1ccc(-c2nnc(N[C@@H]3CCCC[C@@]3(C)O)c3c2CCCC3)c(O)c1 [Example 58] | 88 |
| C[C@@H](O)CNc1nnc(-c2ccc(C(F)(F)F)cc2C(F)(F)F)c2c1CCC2 [Example 8] | 210 |
| OCC1(CNc2nnc(-c3ccc(C(F)(F)F)cc3O)c3ccccc23)CC1 [Example 13] | 15 |
| Oc1cc(C(F)(F)F)ccc1-c1nnc(N[C@@H]2CCOC[C@H]2O)c2c1CCOC2 [101(1)] | 2 |
| Oc1ccccc1-c1nnc(N[C@@H]2CCCC[C@H]2O)c2c1CCOC2 [Example 61] | 96 |
| C[C@@H](O)CNc1nnc(-c2ccc(C(F)(F)F)cc2O)c2c1CCC2 [Example 18] | 34 |
| C[C@]1(O)C[C@@H](Nc2nnc(-c3ccc(OC(F)(F)F)cc3O)c3c2CCOC3)C1 [57(2)] | 94 |
| Oc1cc(C(F)(F)F)ccc1-c1nnc(NC[C@H]2CCCO2)c2ccccc12 [Example 14] | 7.6 |
| Oc1cc(C(F)(F)F)ccc1-c1nnc(N[C@@H]2CCCC[C@H]2O)c2c1OCCC2 [Example 42] | 37 |
| Oc1cc(Cl)ccc1-c1nnc(N[C@@H]2CCCC[C@H]2O)c2c1CCCC2 [Example 25] | 4.6 |
| COc1ccc(-c2nnc(N[C@H]3C[C@@](C)(O)C3)c3c2CCCC3)c(O)c1 [Example 33] | 100 |
| C[C@@]1(O)CCCC[C@H]1Nc1nnc(-c2ccc(C(F)(F)F)cc2O)c2c1CCCC2 [Example 53] | 15 |
| Oc1cc(C(F)(F)F)ccc1-c1nnc(NCC2(O)CCC2)c2ccccc12 [Example 12] | 58 |
| COc1ccc(-c2nnc(N[C@@H]3CCOC[C@H]3O)c3c2CCCCC3)c(O)c1 [Example 49] | 22 |
| Cc1ccc(-c2nnc(N[C@@H]3CCCC[C@H]3O)c3c2CCCC3)c(O)c1 [Example 26] | 15 |
| Cc1cc(O)c(-c2nnc(N[C@@H]3CCCC[C@H]3O)c3c2CCOC3)c(F)c1 [62(1)] | 6.1 |
| C[C@]1(O)C[C@@H](Nc2nnc(-c3ccc(C(F)(F)F)cc3O)c3c2CCCCC3)C1 [Example 48] | 36 |
| [O-][S+]1Cc2c(N[C@@H]3CCCC[C@H]3O)nnc(-c3ccc(C(F)(F)F)cc3O)c2C1 (stereo partly drawn) [131(2)] | 79 |
| Cc1cc(O)c(-c2nnc(N[C@@H]3CCCC[C@H]3O)c3c2COCC3)c(F)c1 [62(2)] | 27 |
| Oc1cc(C2CC2)ccc1-c1nnc(N[C@@H]2CCCC[C@H]2O)c2c1COCC2 [52(2)] | 27 |
| Oc1cc(C(F)(F)F)ccc1-c1nnc(N[C@H]2CCCC[C@@H]2O)c2c1COCC2 [66(1)] | 990 |
| Oc1cc(C(F)(F)F)ccc1-c1nnc(N[C@@H]2CCCC[C@@H]2O)c2c1COCC2 [4(2), 2-(1-{[(1R,2S)-2-hydroxycyclohexyl]amino}-7,8-dihydro-5H-pyrano[3,4-d]pyridazin-4-yl)-5-(trifluoromethyl)phenol] | 15 |
| C[C@]1(O)C[C@@H](Nc2nnc(-c3ccc(OC(F)(F)F)cc3O)c3c2COCC3)C1 [57(1)] | 19 |
